Experimental data reported in PubChem BioAssay AID1963967 (Molecular Pharmacology Branch, DTP, NCI, 2024).

System: 855422-203-R-J1-PDC spheroids with HUVEC/MSC, viability
Test: Anticancer human tumor 855422-203-R-J1-PDC patient-derived bladder carcinoma cell line growth inhibition [PI3K]
Conditions: for IC50: curve of first compound; for viability, T/C: stronger effect = lower value
Method in brief: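 Spheroid viability read-out. Co-cultures contained the tumor line plus HUVEC and human MSCs. Each agent was paired with a PI3K inhibitor (inavolisib, alpelisib, duvelisib, copanlisib) across half-log dilutions starting at clinical Cmax, or at 10 microM when Cmax was unknown.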

[1] = second compound 0.00316 µM, first compound 0.0316 µM
[2] = second compound 0.00316 µM, first compound 0.1 µM
[3] = second compound 0.00316 µM, first compound 0.316 µM
[4] = second compound 0.00316 µM, first compound 1 µM
[5] = second compound 0.00316 µM, first compound 3.16 µM
[6] = second compound 0.00316 µM, first compound 10 µM
[7] = second compound 0.01 µM, first compound 0.0316 µM
[8] = second compound 0.01 µM, first compound 0.1 µM
[9] = second compound 0.01 µM, first compound 0.316 µM
[10] = second compound 0.01 µM, first compound 1 µM
[11] = second compound 0.01 µM, first compound 3.16 µM
[12] = second compound 0.01 µM, first compound 10 µM
[13] = second compound 0.0316 µM, first compound 0.0316 µM
[14] = second compound 0.0316 µM, first compound 0.1 µM
[15] = second compound 0.0316 µM, first compound 0.316 µM
[16] = second compound 0.0316 µM, first compound 1 µM
[17] = second compound 0.0316 µM, first compound 3.16 µM
[18] = second compound 0.0316 µM, first compound 10 µM
[19] = second compound 0.1 µM, first compound 0.0316 µM
[20] = second compound 0.1 µM, first compound 0.1 µM
[21] = second compound 0.1 µM, first compound 0.316 µM
[22] = second compound 0.1 µM, first compound 1 µM
[23] = second compound 0.1 µM, first compound 3.16 µM
[24] = second compound 0.1 µM, first compound 10 µM
[25] = second compound 0.316 µM, first compound 0.0316 µM
[26] = second compound 0.316 µM, first compound 0.1 µM
[27] = second compound 0.316 µM, first compound 0.316 µM
[28] = second compound 0.316 µM, first compound 1 µM
[29] = second compound 0.316 µM, first compound 3.16 µM
[30] = second compound 0.316 µM, first compound 10 µM
[31] = second compound 1 µM, first compound 0.0316 µM
[32] = second compound 1 µM, first compound 0.1 µM
[33] = second compound 1 µM, first compound 0.316 µM
[34] = second compound 1 µM, first compound 1 µM
[35] = second compound 1 µM, first compound 3.16 µM
[36] = second compound 1 µM, first compound 10 µM
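Also: agents incubated with spheroids for one week before read-out.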
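For viability, T/C in this document: 100% = DMSO vehicle-treated control wells.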

Structure (SMILES): Cn1ncc(Cl)c1-c1cc(C(=O)NC(CN)Cc2cccc(F)c2)sc1Cl (centres undefined) + CC(Nc1ccc2c(c1)OCCn1cc(N3C(=O)OCC3C(F)F)nc1-2)C(N)=O
- IC50 (second compound 0.00316 µM): 614 nM
- IC50 (second compound 0.01 µM): 707 nM
- IC50 (second compound 0.0316 µM): 561 nM
- IC50 (second compound 0.1 µM): 257 nM
- IC50 (second compound 0.316 µM): 35.2 nM
- IC50 (second compound 1 µM): < 31.6 nM
- viability, T/C [1]: 88%
- viability, T/C [2]: 65.1%
- viability, T/C [3]: 60.5%
- viability, T/C [4]: 43.6%
- viability, T/C [5]: 31.9%
- viability, T/C [6]: 6.62%
- viability, T/C [7]: 89.3%
- viability, T/C [8]: 72.4%
- viability, T/C [9]: 64.7%
- viability, T/C [10]: 44.9%
- viability, T/C [11]: 25.7%
- viability, T/C [12]: 8.23%
- viability, T/C [13]: 75.7%
- viability, T/C [14]: 62.9%
- viability, T/C [15]: 56.5%
- viability, T/C [16]: 47.7%
- viability, T/C [17]: 22.9%
- viability, T/C [18]: 5.89%
- viability, T/C [19]: 64.5%
- viability, T/C [20]: 61.6%
- viability, T/C [21]: 40.3%
- viability, T/C [22]: 42.9%
- viability, T/C [23]: 19.8%
- viability, T/C [24]: 3.42%
- viability, T/C [25]: 50.2%
- viability, T/C [26]: 50.2%
- viability, T/C [27]: 34.2%
- viability, T/C [28]: 39.2%
- viability, T/C [29]: 16.1%
- viability, T/C [30]: 1.76%
- viability, T/C [31]: 38.1%
- viability, T/C [32]: 29%
- viability, T/C [33]: 32.4%
- viability, T/C [34]: 24.4%
- viability, T/C [35]: 12.2%
- viability, T/C [36]: 1.17%

Structure (SMILES): Cn1nccc1Nc1nccc(-c2ccn(C(CO)c3ccc(Cl)c(F)c3)c(=O)c2)n1 (centres undefined) + CC(Nc1ccc2c(c1)OCCn1cc(N3C(=O)OCC3C(F)F)nc1-2)C(N)=O
- IC50 (second compound 0.00316 µM): 7220 nM
- IC50 (second compound 0.01 µM): 6700 nM
- IC50 (second compound 0.0316 µM): 5550 nM
- IC50 (second compound 0.1 µM): 3780 nM
- IC50 (second compound 0.316 µM): 796 nM
- IC50 (second compound 1 µM): < 31.6 nM
- viability, T/C [1]: 103%
- viability, T/C [2]: 84.7%
- viability, T/C [3]: 95.7%
- viability, T/C [4]: 89.7%
- viability, T/C [5]: 80.7%
- viability, T/C [6]: 38.3%
- viability, T/C [7]: 98.4%
- viability, T/C [8]: 96.2%
- viability, T/C [9]: 93.5%
- viability, T/C [10]: 82.8%
- viability, T/C [11]: 76%
- viability, T/C [12]: 37%
- viability, T/C [13]: 62.7%
- viability, T/C [14]: 82.1%
- viability, T/C [15]: 89.7%
- viability, T/C [16]: 82.8%
- viability, T/C [17]: 70.1%
- viability, T/C [18]: 29.1%
- viability, T/C [19]: 72.4%
- viability, T/C [20]: 79.4%
- viability, T/C [21]: 79.1%
- viability, T/C [22]: 64.7%
- viability, T/C [23]: 56.8%
- viability, T/C [24]: 20.2%
- viability, T/C [25]: 53.6%
- viability, T/C [26]: 52.5%
- viability, T/C [27]: 51.8%
- viability, T/C [28]: 49.5%
- viability, T/C [29]: 29.3%
- viability, T/C [30]: 10.6%
- viability, T/C [31]: 35.9%
- viability, T/C [32]: 32.2%
- viability, T/C [33]: 29.9%
- viability, T/C [34]: 26.4%
- viability, T/C [35]: 17.3%
- viability, T/C [36]: 8.01%
